Tests used:
[1] = tested on: Staphylococcus Aureus ATCC 25923; assay: Colourimetric enzymatic assays in loaded capillaries; format: cell-based; details: overnight at 37° C.; substrate per capillary from Table 4, 500 mg/mL; yellow = positive reaction
Experimental: (§1) An experiment was conducted to test a combination of sugar fermentation and enzymatic assays for the specific identification of bacteria. Individual 200 micron internal diameter capillaries coated with cross-linked HMW PVA were individually loaded with different reagents to perform a combination of colourimetric sugar fermentation and enzymatic assays as shown in Table 4. [table] […] Staphylococcus Epidermidis ATCC 12228 or Staphylococcus Saprophyticus ATCC 15305 resuspended in Microbatch Staph 12 S suspending media. The strips were incubated overnight at 37° C., and positive/negative identification of assays on individual capillaries was performed by imaging the strips with CCD camera. Enzyme detection: enzymatic substrates are normally colourless. If bacteria have the targeted enzymes, the substrates will be hydrolysed, releasing compounds that will produce a yellow colour indicating a positive reaction.

[2] = tested on: Staphylococcus Saprophyticus ATCC 15305; assay: as above; format: cell-based; details: overnight at 37° C.; substrate per capillary from Table 4, 500 mg/mL; yellow = positive reaction
Experimental: as §1

[3] = tested on: Staphylococcus Epidermidis ATCC 12228; assay: as above; format: cell-based; details: overnight at 37° C.; substrate per capillary from Table 4, 500 mg/mL; yellow = positive reaction
Experimental: as §1

[4] = tested on: Staphylococcus Aureus ATCC 25923; assay: Colourimetric fermentation assays in loaded capillaries; format: cell-based; details: overnight at 37° C.; reagent per capillary from Table 4; orange to yellow = fermentation, orange to purple = arginine/urea degradation
Experimental: (§2) An experiment was conducted to test a combination of sugar fermentation and enzymatic assays for the specific identification of bacteria. Individual 200 micron internal diameter capillaries coated with cross-linked HMW PVA were individually loaded with different reagents to perform a combination of colourimetric sugar fermentation and enzymatic assays as shown in Table 4. [table] […] Staphylococcus Epidermidis ATCC 12228 or Staphylococcus Saprophyticus ATCC 15305 resuspended in Microbatch Staph 12 S suspending media. The strips were incubated overnight at 37° C., and positive/negative identification of assays on individual capillaries was performed by imaging the strips with CCD camera. Sugar Fermentation: if a sugar is fermented, bacteria will produce acid end products and the pH of the medium will drop. The media contains a pH indicator to indicate acid production. A positive test for sugar fermentation consists of a colour change from orange to yellow, indicating a pH change to acidic. Arginine and Urea degradation (detection of Arginine dihydrolase/Urease): when arginine or urea are present, the pH of the medium rises. Accordingly, a positive test for detection of arginine dihydrolase or urease consists of a colour change from orange to purple indicating a pH change to alkaline.

[5] = tested on: Staphylococcus Saprophyticus ATCC 15305; assay: as above; format: cell-based; details: overnight at 37° C.; reagent per capillary from Table 4; orange to yellow = fermentation, orange to purple = arginine/urea degradation
Experimental: as §2

[6] = tested on: Staphylococcus Epidermidis ATCC 12228; assay: as above; format: cell-based; details: overnight at 37° C.; reagent per capillary from Table 4; orange to yellow = fermentation, orange to purple = arginine/urea degradation
Experimental: as §2

[7] = ONPG released into water from loaded cross-linked PVA coated strips, enzymatic endpoint analysis at 420 nm; format: physicochemical; details: 1 hour, 60 mm strips
Experimental: Reagent loading and release from the hydrophilic layer was quantified using a fluorescent dye and colorimetric enzyme substrates. For this purpose, an FEP microcapillary film was coated with cross-linked PVA and loaded with two assay reagents, the enzymatic substrate ortho-nitrophenyl-β-galactoside (ONPG) which produces a yellow colour in the presence of beta-galactosidase, and the fluorescent dye fluorescein. Loading was performed by incubation with a water or dimethylformamide (DMF)-based reagent solution for between 5 minutes and 2 h, and subsequent removal of the loading solution using a syringe, followed by air drying of the capillaries by repeated aspiration of air through the film using a syringe. Following loading of the capillaries, the amount of reagent loaded was quantified using three different methods.
The water taken up was then removed using a syringe and ONPG concentration measured by enzymatic endpoint analysis in a microwell plate well through the addition of an excess of beta-galactosidase enzyme and monitoring absorbance at 420 nm using a microwell plate reader. Released concentrations were determined by comparison of absorbance with a calibration curve of known concentrations of ONPG.

[8] = ONPG loaded in strips, determined by dipping into beta-galactosidase solution, absorbance at 420 nm; format: physicochemical; details: loaded 5 minutes with 150 mg/ml in DMF; cross-linked PVA; 1 hour with beta-galactosidase 0.2 U/μL
Experimental: Secondly, the concentration of loaded ONPG was determined inside the capillary film by dipping an FEP microcapillary film coated with cross-linked PVA, and loaded for 5 minutes with 150 mg/ml ONPG dissolved in DMF, into aqueous solutions of beta-galactosidase enzyme (at 0.2 U/μL). The solution was drawn up into test strips, and incubated for 1 hour to allow complete enzymatic conversion of the loaded ONPG. Subsequently, solution was removed from MCF test strips using a syringe and absorbance read using a microplate reader at 420 nm, and absorbance compared to a calibration curve of known concentrations of enzymatically converted ONPG.

[9] = tested on: E. coli (ATCC accession number: 25922); assay: ONPG loaded test strips dipped into bacterial culture, yellow colour; format: cell-based; details: IPTG-cultured (1 mM, 3 hours); 1 hour incubation at 37 degrees C
Experimental: (§3) A 10 bore FEP microcapillary film was internally coated with cross-linked PVA. Test microcapillary film was prepared by first loading the capillaries with ONPG by filling the capillaries with a 150 mg·mL^−1 ONPG substrate solution in DMF and incubating for 5 minutes. The substrate solution was then removed and the microcapillary film air dried using a syringe to pass air repeatedly through the capillaries. Seven test strips were cut from this ONPG loaded microcapillary film and dipped into one of 7 different aqueous samples. These comprised water (1); sterile Luria-Bertani lysogeny broth (LB) media (2); a 0.1 U/μl solution of β-galactosidase enzyme (3); an overnight culture of E. coli (ATCC accession number: 25922) suspended in LB (4); an overnight culture of Salmonella typhimurium (strain SL3261) suspended in LB (5); an overnight culture of E. coli suspended in a phosphate buffer saline PBS (6); an overnight culture of S. typhimurium suspended in PBS (7). Negative control test strips consisting of PVA coated cross-linked PVA but not loaded with ONPG were dipped into the same samples (referred hereafter as no substrate). As a comparison, similar assays were also performed in 96 well-plates with ONPG substrate solution (final concentration 1 mg·ml^−1) added to the different samples in a final volume of 100 μl. […]

[10] = tested on: Salmonella typhimurium (strain SL3261); assay: as above; format: cell-based; details: IPTG-cultured (1 mM, 3 hours); 1 hour incubation at 37 degrees C
Experimental: as §3

[11] = ONPG released into water from strips with different hydrophilic coatings; format: physicochemical; details: loaded 150 g/L, 5 minute
Experimental: The polymer solutions were then removed from the microcapillary film and the film dried by repeatedly aspirating air through the film strip using a syringe. An FEP microcapillary film coated with cross-linked PVA was used as a control. 8 cm lengths of each polymer coated film were then loaded with ONPG reagent by dipping the film into a 150 g/L ONPG solution. After a 5 minute incubation, the ONPG solution was removed and capillaries were dried using a syringe. The test films were then dipped into water, and the amount of ONPG reagent released into the water measured by a colorimetric endpoint determination using beta-galactosidase enzyme. With the cross-linked PVA coated test strips, 7.8 mg/ml ONPG was released, with gelatine coated test strips 7.2 mg/ml ONPG was released, and with HPMC coated test strips 21.5 mg/ml ONPG was released.

[12] = tested on: E. coli (ATCC accession number: 25922); assay: ONPG assay in 96 well-plates (comparison); format: cell-based; details: ONPG 1 mg/ml, overnight incubation
Experimental: (§4) A 10 bore FEP microcapillary film was internally coated with cross-linked PVA. Test microcapillary film was prepared by first loading the capillaries with ONPG by filling the capillaries with a 150 mg·mL^−1 ONPG substrate solution in DMF and incubating for 5 minutes. The substrate solution was then removed and the microcapillary film air dried using a syringe to pass air repeatedly through the capillaries. Seven test strips were cut from this ONPG loaded microcapillary film and dipped into one of 7 different aqueous samples. These comprised water (1); sterile Luria-Bertani lysogeny broth (LB) media (2); a 0.1 U/μl solution of β-galactosidase enzyme (3); an overnight culture of E. coli (ATCC accession number: 25922) suspended in LB (4); an overnight culture of Salmonella typhimurium (strain SL3261) suspended in LB (5); an overnight culture of E. coli suspended in a phosphate buffer saline PBS (6); an overnight culture of S. typhimurium suspended in PBS (7). Negative control test strips consisting of PVA coated cross-linked PVA but not loaded with ONPG were dipped into the same samples (referred hereafter as no substrate). As a comparison, similar assays were also performed in 96 well-plates with ONPG substrate solution (final concentration 1 mg·ml^−1) added to the different samples in a final volume of 100 μl.

[13] = tested on: Salmonella typhimurium (strain SL3261); assay: ONPG assay in 96 well-plates (comparison); format: cell-based; details: ONPG 1 mg/ml, overnight incubation
Experimental: as §4

Salmonella typhimurium = assay: Sugar fermentation in sugar loaded test strips with Phenol Red Broth; format: cell-based; details: sugar loaded from 1 g/L solution; 1 h at 37 degrees C; yellow = reduction in pH
Experimental: (§5) The ability of bacteria to ferment specific sugars is also frequently used to distinguish similar species of bacteria. For example, E. coli are able to ferment lactose and glucose and produce acid when they are incubated in the presence of either of these sugars.
(§6) A 10 bore FEP microcapillary film was internally coated with cross-linked PVA. Test microcapillary film was prepared by first loading the capillaries with either glucose or lactose by filling the capillaries with a 1 g/L solution in water and incubating for 5 minutes. The sugar solutions were then removed and the microcapillary film air dried using a syringe to pass air repeatedly through the capillaries. Three test strips were cut from each of the glucose or lactose loaded microcapillary film and dipped into one of 3 different aqueous samples. The first sample was a control sample that contained no bacteria. The second sample contained a suspension of E. coli. The third sample contained a suspension of Salmonella typhimurium. All three aqueous samples also contained Phenol Red Broth (Casein peptone 1 g/L; NaCl 0.5 g/L; Phenol Red 1 g/L). The samples all started out with a pH of 7 and were bright red in colour. When dipped, each aqueous sample was rapidly drawn up into the test strips, and the microcapillaries were clearly bright red in colour due to the Phenol Red indicator dye in the sample. […]

E. coli = assay: as above; format: cell-based; details: sugar loaded from 1 g/L solution; 1 h at 37 degrees C; yellow = reduction in pH
Experimental: as §5, §6

SMILES: O=[N+]([O-])c1ccc(OP(=O)(O)O)cc1 [4-Nitrophenyl phosphate]
- colour, enzymatic assays [1]: Y

SMILES: O=[N+]([O-])c1ccc(O[C@@H]2O[C@H](CO)[C@H](O)[C@H](O)[C@H]2O)cc1 [4-Nitrophenyl β-D-galacto-pyranoside]
- colour, enzymatic assays [2]: Y

SMILES: O=C(O)[C@H]1O[C@@H](Oc2ccc([N+](=O)[O-])cc2)[C@H](O)[C@@H](O)[C@@H]1O [4-Nitrophenyl β-D-glucuronide]
- colour, enzymatic assays [3]: Y
- colour, enzymatic assays [1]: Y

SMILES: N=C(N)NCCC[C@H](N)C(=O)O [Arginine]
- colour, fermentation assays [4]: O/P

SMILES: OC[C@H]1O[C@H](O[C@H]2[C@H](O)[C@@H](O)[C@H](O)O[C@@H]2CO)[C@H](O)[C@@H](O)[C@@H]1O [Maltose]
- colour, fermentation assays [5]: Y
- colour, fermentation assays [6]: Y
- colour, fermentation assays [4]: Y

SMILES: OC[C@@H](O)[C@@H](O)[C@H](O)[C@H](O)CO [Mannitol]
- colour, fermentation assays [5]: Y
- colour, fermentation assays [4]: Y

SMILES: CC(=O)N[C@H]1C(O)O[C@H](CO)[C@@H](O)[C@@H]1O (stereo partly drawn) [N-Acetyl Glucosamine]
- colour, fermentation assays [4]: Y

SMILES: O=[N+]([O-])c1ccccc1O[C@@H]1O[C@H](CO)[C@H](O)[C@H](O)[C@H]1O [ONPG, ortho-nitrophenyl-β-galactoside]
- Released Concentration ([7]; Loading concentration 0.5 mg/ml In Water): 0.07 mg/mL
- Released Concentration ([7]; Loading concentration 1.0 mg/ml In Water): 0.01 mg/mL
- Released Concentration ([7]; Loading concentration 5.0 mg/ml In Water): 0.06 mg/mL
- Released Concentration ([7]; Loading concentration 150.0 mg/ml In DMF): 4.67 mg/mL
- average concentration loaded within test strips [8]: 3.4 mg/mL
- colour of ONPG-loaded test strips [9]: a yellow colour was observed
- colour of ONPG-loaded test strips [10]: no yellow colour was observed
- ONPG released ([11]; HPMC coated test strips): 21.5 mg/mL
- ONPG released ([11]; cross-linked PVA coated test strips): 7.8 mg/mL
- ONPG released ([11]; gelatine coated test strips): 7.2 mg/mL
- colour of wells [12]: turned yellow
- colour of wells [13]: E. coli but not S. typhimurium suspensions turned yellow

SMILES: OC[C@H]1O[C@@](CO)(O[C@H]2O[C@H](CO)[C@@H](O)[C@H](O)[C@H]2O)[C@@H](O)[C@@H]1O [Sucrose]
- colour, fermentation assays [5]: Y
- colour, fermentation assays [6]: Y
- colour, fermentation assays [4]: Y

SMILES: OC[C@H]1O[C@H](O[C@H]2O[C@H](CO)[C@@H](O)[C@H](O)[C@H]2O)[C@H](O)[C@@H](O)[C@@H]1O [Trehalose]
- colour, fermentation assays [5]: Y
- colour, fermentation assays [4]: Y

SMILES: OC[C@H]1O[C@@H](O[C@H]2[C@H](O)[C@@H](O)C(O)O[C@@H]2CO)[C@H](O)[C@@H](O)[C@H]1O (stereo partly drawn) [lactose]
- colour of sugar loaded test strips (Phenol Red) (Salmonella typhimurium): remained bright red
- colour of sugar loaded test strips (Phenol Red) (E. coli): turned yellow

Reference: patent US20180021773A1, “ASSAY DEVICES, METHODS FOR CARRYING OUT ASSAYS, ASSAY KITS AND METHOD FOR MANUFACTURING ASSAY DEVICES” (Loughborough University, priority 2014, published 2018)
